Source: publication PMC12301034, “Design and Synthesis of Boronic Chalcones with Dual Anticancer and Anti-Inflammatory Activity” (Molecules, 2025)
Where two headings read alike, the source gives them in different places.

Legend:
[1] = tested on: SCC-25 cells; assay: MTT cytotoxicity assay on SCC-25 cells; type: cell-based, human; details: for IC50: MTT, 24 h incubation, mean SEM of three experiments; for SI = IC50 NOK-si/IC50 SCC-25: selectivity index
Excerpt: (§1) The SCC-25 (ATCC® CRL-1628™), Detroit-562 (ATCC® CCL-138™), and THP-1 (ATCC® TIB-202™) cells were purchased from Rio de Janeiro Cell Bank (Duque de Caxias, Brazil), and NOK-si was kindly provided by Prof. Carlos Rossa from the School of Dentistry—UNESP. All the cells were cultivated according to standard conditions. Human colorectal adenocarcinoma HCT116 cell lines (ATCC® CCL-247™) expressing p53 and its p53-null isogenic derivative (HCT116 p53^−/−) were provided by B. Vogelstein (The Johns Hopkins Kimmel Cancer Center, Baltimore, MD, USA).
(§2) Cells (NOK-si, SCC-25, and Detroit-562) were grown in a DMEM medium (Dulbecco’s Modified Eagle Medium), supplemented according to the needs of each lineage, as recommended by its cell banks, with 2 mM L-glutamine, 10% or 20% fetal bovine serum (FBS), 1% antibiotic–antimycotic solution (5 mg/mL penicillin, 5 mg/mL streptomycin, and 10 mg/mL neomycin), 4.5 g/L of glucose, and 3.7 g/L of sodium bicarbonate (NaHCO3). All cell lines were cultured in flasks at 37 °C in 5% carbon dioxide (CO2) and 95% of relative humidity. The assays were conducted between the third- and the seventh-cell passage, with sub-cultures every 3–4 days to maintain exponential growth. The cell viability was checked using the trypan blue dye exclusion assay for all experiments, where over 95% of the cells were viable at the beginning of the tests. NOK-si, SCC-25, and Detroit-562 were initially thawed and cultured in 25 cm^2 cell culture flasks. Cell growth was monitored using a microscope, and the culture medium was changed periodically. Upon reaching confluency, cell dissociation was achieved by adding 5 mL of trypsin (Sigma-Aldrich, St Louis, MO, USA) and incubating the bottles in a CO2 incubator for 10 min. Subsequently, the cells were transferred to 15 mL Falcon tubes and centrifuged at 2000 rpm for 10 min. Cell counting was performed using a Countess II FL automated cell counter (ThermoFischer, Waltham, MA, USA). The cells were seeded at a density of 30,000 cells per well in 96-well plates. The plates were then incubated at 37 °C in 5% CO2 for 24 h. Following this, test compounds were incubated for another 24 h at 10 different concentrations: 50, 25, 12.5, 6.25, 3.12, 1.56, 0.78, 0.39, 0.19, and 0.097 µg/mL. After the specified time, MTT reagent (3 mg/mL) (Sigma-Aldrich, St Louis, MO, USA) dissolved in phenol-free RPMI 1640 was added and incubated for 4 h. The formed MTT crystals were solubilized using 2-propanol P.A. (Sigma-Aldrich, St Louis, MO, USA) with agitation. Absorbance was read at 562 nm using an EZ Read 400 microplate reader (Biochrom, Cambridge, UK) and ADAP 2.0 Biochrom software (version 2.0). IC50 values and graphs were calculated using Excel and Prism software (version 10.4.1). The MTT assay results were evaluated for normality using the Shapiro–Wilk test, followed by one-way ANOVA with Tukey’s post hoc test at a significance level of 5%.

[2] = tested on: NOK-si cells; assay: MTT cytotoxicity assay on NOK-si normal oral keratinocytes; type: cell-based; details: 24 h incubation; for CC50: Keratinocyte, read-out: NOK-si IC50
Excerpt: as §1, §2

[3] = tested on: HCT116 p53^+/+ cells; assay: SRB cytotoxicity assay on HCT116 p53+/+ cells; type: cell-based, human
Excerpt: as §1
(§3) HCT p53^+/+ and HCT p53^−/− cell lines were seeded in 96-well plates, with a concentration of 5000 cells/well, and allowed to adhere overnight. Afterwards, they were treated with serial dilutions of the compounds for an additional 48 h (compounds were prepared at 30 mM, in DMSO, and tested with a starting concentration of 50μM and 15 μM). Cells passed then through a series of essential steps (fixation with 10% trichloroacetic acid, for 1 h at 4 °C; staining with 0.4% sulforhodamine B (SRB); wash with 1% acetic acid; and solubilization with 10 mM Tris-Base); subsequently, absorbance was measured at 510 nm in a microplate reader (Biotek Instruments Inc., Synergy, MX, USA). IC50 values were determined using GraphPad Prism software, Version 7.0 (La Jolla, CA, USA).

[4] = tested on: HCT116 p53^−/− cells; assay: SRB cytotoxicity assay on HCT116 p53-/- cells; type: cell-based, human
Excerpt: as §1, §3

[5] = tested on: TNF; assay: Anti-inflammatory assay, TNF in LPS-stimulated THP-1 cells (CBA); type: cell-based, human; details: 2 and 4 µg/mL, 24 h
Method: For this assay, THP-1 (BCRJ cód. 0234) cells were cultured in Roswell Park Memorial Institute (RPMI-1640, Sigma-Aldrich; Saint Louis, MO, USA) media supplemented with 2 mM L-glutamine, 1 mM sodium pyruvate, 1.50 g/L of sodium bicarbonate, and 10% fetal bovine serum. For obtaining Macrophage-like cells, 250,000 cells per well were plated in a 24-well cell culture plate. A total of 20 ng/mL of Forbol 12-miristato-13-acetato (PMA) was added to each well, and the cells were incubated for 48 h at 37 °C with 5% CO2. After the 48 h, the wells were washed with 1X PBS, and fresh RPMI-1640 media was added. The cells were then incubated for 24 h at 37 °C and 5% CO2. For the cell’s stimulations, after the 24 h, the well was washed with PBS and fresh RPMI1640 media without fetal bovine serum added. For the positive controls of the assay, 3 wells were stimulated with LPS (1 ng/µL) diluted in the same volume and media used for the drugs stimulation. Two different concentrations (2 and 4 µg/mL) were evaluated for each molecule, which were determined to be non-cytotoxic through a cell viability assay. After a 24 h period, the supernatant was removed and used in the cytokine quantification assay. A kit for inflammatory cytokines, BD® Cytometric Bead Array CBA Human Inflammatory, was employed for this assay, containing the following human cytokines: IL-8, IL-1β, IL-6, and TNF. Standard cytokines were prepared in 9 different concentrations: 1:256, 1:128, 1:64, 1:32, 1:16, 1:8, 1:4, 1:2, and 1:1 (“top standard”). Analysis was performed using a Flow Cytometer FACS Aria Fusion BD (Bioscence, Houston, TX, USA). Data analysis was conducted using Prism software (version 10.4.1).

[6] = tested on: IL-6; assay: Anti-inflammatory assay, IL-6 in LPS-stimulated THP-1 cells (CBA); type: cell-based, human; details: 2 and 4 µg/mL, 24 h
Method: (§4) For this assay, THP-1 (BCRJ cód. 0234) cells were cultured in Roswell Park Memorial Institute (RPMI-1640, Sigma-Aldrich; Saint Louis, MO, USA) media supplemented with 2 mM L-glutamine, 1 mM sodium pyruvate, 1.50 g/L of sodium bicarbonate, and 10% fetal bovine serum. For obtaining Macrophage-like cells, 250,000 cells per well were plated in a 24-well cell culture plate. A total of 20 ng/mL of Forbol 12-miristato-13-acetato (PMA) was added to each well, and the cells were incubated for 48 h at 37 °C with 5% CO2. After the 48 h, the wells were washed with 1X PBS, and fresh RPMI-1640 media was added. The cells were then incubated for 24 h at 37 °C and 5% CO2. For the cell’s stimulations, after the 24 h, the well was washed with PBS and fresh RPMI1640 media without fetal bovine serum added. For the positive controls of the assay, 3 wells were stimulated with LPS (1 ng/µL) diluted in the same volume and media used for the drugs stimulation. Two different concentrations (2 and 4 µg/mL) were evaluated for each molecule, which were determined to be non-cytotoxic through a cell viability assay. After a 24 h period, the supernatant was removed and used in the cytokine quantification assay. A kit for inflammatory cytokines, BD® Cytometric Bead Array CBA Human Inflammatory, was employed for this assay, containing the following human cytokines: IL-8, IL-1β, IL-6, and TNF. […]

[7] = tested on: IL-1β; assay: Anti-inflammatory assay, IL-1β in LPS-stimulated THP-1 cells (CBA); type: cell-based, human; details: 2 and 4 µg/mL, 24 h
Method: as §4

[8] = Partition coefficient (Log P), OECD 117 HPLC method
[9] = tested on: Detroit-562 cells; assay: MTT cytotoxicity assay on Detroit-562 cells; type: cell-based; details: Homo sapiens; MTT, 24 h incubation, Detroit-562 metastatic pharyngeal cancer model
Excerpt: as §1
Cells (NOK-si, SCC-25, and Detroit-562) were grown in a DMEM medium (Dulbecco’s Modified Eagle Medium), supplemented according to the needs of each lineage, as recommended by its cell banks, with 2 mM L-glutamine, 10% or 20% fetal bovine serum (FBS), 1% antibiotic–antimycotic solution (5 mg/mL penicillin, 5 mg/mL streptomycin, and 10 mg/mL neomycin), 4.5 g/L of glucose, and 3.7 g/L of sodium bicarbonate (NaHCO3). All cell lines were cultured in flasks at 37 °C in 5% carbon dioxide (CO2) and 95% of relative humidity. The assays were conducted between the third- and the seventh-cell passage, with sub-cultures every 3–4 days to maintain exponential growth. The cell viability was checked using the trypan blue dye exclusion assay for all experiments, where over 95% of the cells were viable at the beginning of the tests. NOK-si, SCC-25, and Detroit-562 were initially thawed and cultured in 25 cm^2 cell culture flasks. Cell growth was monitored using a microscope, and the culture medium was changed periodically. […] Absorbance was read at 562 nm using an EZ Read 400 microplate reader (Biochrom, Cambridge, UK) and ADAP 2.0 Biochrom software (version 2.0). IC50 values and graphs were calculated using Excel and Prism software (version 10.4.1). The MTT assay results were evaluated for normality using the Shapiro–Wilk test, followed by one-way ANOVA with Tukey’s post hoc test at a significance level of 5%.

[10] = reference compounds for calibration curve; cited from earlier work
[11] = Homo sapiens, HCT-116, 48 h of treatment
[12] = 48 h of treatment, read-out: HCT p53^+/+ IC50
[13] = 48 h of treatment, read-out: HCT p53^−/− IC50

chromatographic logP [8] | Molecule | IC50 ([1]; Homo sapiens, SCC-25) [µM] | SI = IC50 NOK-si/IC50 SCC-25 [1] | CC50 [2] [µM] | also measured
1.81 | O=C(/C=C/c1cccc(B(O)O)c1)c1cccc(O)c1 [Compound 4, (E)-(3-(3-(3-hydroxyphenyl)-3-oxoprop-1-en-1-yl)phenyl)boronic acid] | 9.8 ± 1 | 1.88 | 18.5 ± 4.43 | IC50 [9]: 31.6 ± 3.13 µM; IC50 [3, 11]: 2.33 ± 0.2 µM; IC50 [4, 11]: 2.16 ± 0.25 µM
2.3 | COc1ccc(C(=O)/C=C/c2cccc(B(O)O)c2)cc1OC [Compound 6, (E)-(3-(3-(3,4-dimethoxyphenyl)-3-oxoprop-1-en-1-yl)phenyl)boronic acid] | 27.2 ± 3.84 | 0.77 | 20.8 ± 2.17 | –
1.18 | Nc1cccc(C(=O)/C=C/c2ccc(B(O)O)cc2)c1 [Compound 9, (E)-(4-(3-(3-aminophenyl)-3-oxoprop-1-en-1-yl)phenyl)boronic acid] | 108 ± 22.5 | 0.69 | 74.6 ± 15 | –
1.64 | O=C(/C=C/c1ccc(B(O)O)cc1)c1cccc(O)c1 [Compound 10, (E)-(4-(3-(3-hydroxyphenyl)-3-oxoprop-1-en-1-yl)phenyl)boronic acid] | 43.8 ± 4.43 | 0.59 | 25.7 ± 11.6 | –
2.81 | COc1cccc(C(=O)/C=C/c2ccc(B(O)O)cc2)c1 [Compound 11, (E)-(4-(3-(3-methoxyphenyl)-3-oxoprop-1-en-1-yl)phenyl)boronic acid] | 65.9 ± 11 | 1.46 | 96.2 ± 21.3 | IC50 [3, 11]: 3.96 ± 0.55 µM; IC50 [4, 11]: 3.8 ± 0.26 µM
2.16 | COc1ccc(C(=O)/C=C/c2ccc(B(O)O)cc2)cc1OC [Compound 12, (E)-(4-(3-(3,4-dimethoxyphenyl)-3-oxoprop-1-en-1-yl)phenyl)boronic acid] | 38.4 ± 1.63 | 0.77 | 29.5 ± 6.08 | –

Second part, the molecule before the results:

Molecule | chromatographic logP [8] | IC50 ([1]; Homo sapiens, SCC-25) [µM] | SI = IC50 NOK-si/IC50 SCC-25 [1] | CC50 [2] [µM] | also measured
COc1cccc(C(=O)/C=C/c2ccccc2)c1 [Compound 1] | 3.73 | 24.9 ± 1.09 | 4.08 | 101.5 ± 0.17 | IC50 [3, 11]: 6.83 ± 1.15 µM; IC50 [4, 11]: 7.56 ± 0.4 µM; reduction of TNF levels [5]: lower effectiveness; reduction of IL-6 levels [6]: lower effectiveness; reduction of IL-1β levels [7]: comparable efficacy in reducing cytokine levels relative to LPS-stimulated cells
O=C(/C=C/c1cccc(B(O)O)c1)c1ccccc1 [Compound 2, (E)-(3-(3-oxo-3-phenylprop-1-en-1-yl)phenyl)boronic acid] | 2.68 | 134 ± 12.3 | 1.00 | 133 ± 3.25 | IC50 [3, 11]: 4.4 ± 0.53 µM; IC50 [4, 11]: 3.63 ± 0.47 µM
Nc1cccc(C(=O)/C=C/c2cccc(B(O)O)c2)c1 [Compound 3, (E)-(3-(3-(3-aminophenyl)-3-oxoprop-1-en-1-yl)phenyl)boronic acid] | 1.49 | 45.2 ± 13.7 | – | 36.2 ± 10.7 | –
O=c1[nH]cc(F)c(=O)[nH]1 [Compound 5-FU, 5-fluorouracil, reference compound] | – | 1800 | lacked selectivity | 1800 ± 27.7 | –
Clc1ccc(C(c2ccc(Cl)cc2)C(Cl)(Cl)Cl)cc1 [DDT] | – | – | – | – | log P of reference compounds [10]: 6.5
Nc1ccccc1 [aniline] | – | – | – | – | log P of reference compounds [10]: 0.9
(E)-(3-(3-(2-bromo-4-hydroxyphenyl)-3-oxoprop-1-en-1-yl)phenyl)boronic acid [Compound 7] | – | – | 1.31 | – | IC50 [1]: 41.1 ± 4.62 µM; NOK-si IC50 [2]: 54.0 ± 10.98 µM; IC50 [3, 12]: 3.63 ± 0.4 µM; IC50 [4, 13]: 4.2 ± 0.35 µM
(E)-(3-(3-(2-bromo-4-methoxyphenyl)-3-oxoprop-1-en-1-yl)phenyl)boronic acid [Compound 8] | – | – | 0.82 | – | IC50 [1]: 33.4 ± 1.25 µM; NOK-si IC50 [2]: 27.4 ± 3.05 µM; IC50 [3, 12]: 2.06 ± 0.45 µM; IC50 [4, 13]: 1.7 ± 0.72 µM
